# Measured values reported in ChEMBL document CHEMBL3243992, “Synthesis and carcinogenic activity of 5-fluoro-7-(oxygenated methyl)-12-methylvenz[a]anthracenes” (J Med Chem, 1978).
# Assays:
# [1] = tested on: Rattus norvegicus; assay: Carcinogenic activity in Sprague-Dawley rat assessed as tumor induction time at 0.1 umol, sc three times a week for 30 days; assay type: ADME, organism-based; conditions: in vivo, 720 h
# [2] = tested on: Rattus norvegicus; assay: Carcinogenic activity in Sprague-Dawley rat assessed as tumor formation at 0.1 umol, sc three times a week for 30 days observed up to 270 days; assay type: ADME, organism-based; conditions: in vivo
SMILES,Time [1] [days],Activity [2]
CC(=O)OCc1c2ccccc2c(C)c2c1cc(F)c1ccccc12,205.7,–
Cc1c2ccccc2c(CO)c2cc(F)c3ccccc3c12,–,Non-toxic
Cc1c2ccccc2c(C)c2c1cc(F)c1ccccc12,231,–
